Read-outs that look alike come from different tables or passages of the source.
Tests used:
[1] = tested on: CAM (choriallantoic membrane); settings: CAM assay; for angiogenesis: filter paper with 10 or 50 μM solution 10 μl, three days
Experimental: Particularly, the fertilized egg was incubated in a 37° C. 55% humid incubator. 10 days later, the egg albumin was removed by using a 2 ml hypodermic syringe in order to separate CAM and yolk sac from the shell membrane. On 10.5th day, the egg shell was removed (1 cm^2). […] Three days later, 1-2 ml of 10% fat emulsion was injected into chorioallantoic membrane, followed by observation under a microscope.

[2] = tested on: VEGF; settings: 50 μM; cell line not clearly stated (SH-SY5Y implied)
Experimental: Total RNA was extracted by using RNase Spin column (Qiagen, USA). cDNA was synthesized from 1 μg of the extracted RNA using AMV reverse transcriptase (Promega, USA) and random hexamer (Gibco-BRL, USA). RT-PCR was performed using the synthesized cDNA as a template with a VEGF forward primer represented by SEQ. […] NO: 1 (5′-[sequence]-3′) and a VEGF reverse primer represented by SEQ. […] NO: 2 (5′-[sequence]-3′). RT-PCR conditions were as follows; predenaturation at 95° C. for 5 minutes, denaturation at 95° C. for 45 seconds, annealing at 56° C. for 45 seconds, polymerization at 72° C. for 60 seconds, 30 cycles from denaturation to polymerization. For the control, RT-PCR was performed again with an 18S forward primer represented by SEQ. […] NO: 3 (5′-[sequence]-3′) and an 18S reverse primer represented by SEQ. […] NO: 4 (5′-[sequence]-3′). RT-PCR conditions were as follows; predenaturation at 95° C. for 5 minutes, denaturation at 95° C. for 45 seconds, annealing at 56° C. for 45 seconds, polymerization at 72° C. for 60 seconds, 30 cycles from denaturation to polymerization.

[3] = tested on: VEGF; assay: Effects of CQ and TPEN on the expression of VEGF, a HIF-1α target gene (RT-PCR); format: cell-based, human; settings: TPEN 5 μM
Source text: ID. […] ID. NO: 2 (5′-[…]-3′). […] ID. […] ID. NO: 4 (5′-[…]-3′).

[4] = tested on: APP2576 transgenic mice; settings: cited from earlier work
[5] = cited from earlier work
[6] = target: T1, FIH-1 (Homo sapiens, UniProt Q9NWT6); settings: F-HIF-1α peptide 4 μM, recombinant FIH-1, MALDI-TOF
T1 sequence (Q9NWT6 whole entry): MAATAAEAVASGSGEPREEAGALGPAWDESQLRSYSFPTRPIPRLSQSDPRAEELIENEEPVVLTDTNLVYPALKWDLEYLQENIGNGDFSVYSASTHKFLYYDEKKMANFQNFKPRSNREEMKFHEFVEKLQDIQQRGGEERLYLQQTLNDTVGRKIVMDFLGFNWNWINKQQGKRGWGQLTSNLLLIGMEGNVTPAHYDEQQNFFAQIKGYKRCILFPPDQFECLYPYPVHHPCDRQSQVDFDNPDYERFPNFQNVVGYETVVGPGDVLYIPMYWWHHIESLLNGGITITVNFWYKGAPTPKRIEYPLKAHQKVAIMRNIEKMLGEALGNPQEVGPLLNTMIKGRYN
Experimental: The present inventors examined FIH-1 activity by measuring the asparagine hydroxylation of F-HIF-1α peptide. The peptide hydroxylation was measured by mass spectrophotometry.
Particularly, F-HIF-1α (788-822 amino acids: FITC-aca-[sequence]) containing fluorescein and aca (aminocaproic acid) linker (AnyGen, KwangJu, Korea) at N-terminal was reacted with FIH-1 protein. The F-HIF-1α peptide was incubated at a final concentration of 4 μM with 2.8 μg of recombinant FIH-1 in reaction solution [20 mM Tris buffer (pH 7.5), 5 mM KCl, 1.5 mM MgCl2, 100 μM α-ketoglutarate and 400 μM ascorbic acid: final volume 50 μl]. After incubation with agitation for 2 hours at room temperature, excess salts were removed with ZipTipC18 (Millipore, USA). The F-HIF-1α peptide was eluted from the tip with a-cyano-4-hydroxycinnamic acid in acetonitrile/water (50:50 v/v) containing 0.1% TFA followed by washing with distilled water containing 0.1% TFA. The eluted peptide solution was transferred to a MALDI sample plate and MALDI-TOF measurements were performed with a Voyager analyzer (Applied Biosystems, USA).

[7] = tested on: human cancer cell lines; settings: several human cancer cell lines; cited from earlier work
[8] = tested on: HRE (hypoxia-response element); assay: HRE dependent gene expression in HepG2 hepatoma cells (luciferase reporter gene assay); format: cell-based, human; settings: p(HRE)4-luc, TPEN 5, 10 μM, CQ 10, 50 μM, 16 hours
Experimental: Human HepG2 hepatoma cells were grown to the density of 5×10^4 and then transfected with 100 ng of HRE-driven reporter plasmid, p(HRE)4-luc together with plasmid pCHO110 which encodes β-galactosidase. The transfected human HepG2 hepatoma cells were cultured under normoxic condition and hypoxic condition and then treated with TPEN (5, 10 μM) and CQ (10, 50 μM) for 16 hours each. 48 hours after the transfection, luciferase activities were analyzed using the reporter gene assay system (Promega, USA) and normalized by β-galactosidase activities.

[9] = in vivo; cited from earlier work
[10] = tested on: VEGF; settings: normoxic condition, CQ 10, 50 μM, 16 hours; HepG2 and SH-SY5Y cells
Experimental: (§1) Total RNA was extracted by using RNase Spin column (Qiagen, USA). VEGF expression was investigated by Northern blot analysis. Northern blot hybridization was performed using ^32P-labeled VEGF cDNA probe and ^32P-labeled EPO cDNA probe. The Northern blotting was performed by the conventional method well known to those in the art (Sambrook et al., Molecular cloning, 1989).

[11] = tested on: EPO; settings: normoxic condition, CQ 10, 50 μM, 16 hours; HepG2 and SH-SY5Y cells
Experimental: as §1

[12] = tested on: GAL4-HIF-1α; assay: HIF-1α transactivation, Gal4-driven reporter gene assay in HepG2 cells; format: cell-based, human; settings: normoxic condition, CQ 10, 50 μM, TPEN 5 μM, 16 hours
Experimental: Human HepG2 hepatoma cells were cultured at the concentration of 5×10^4, which were transfected with 100 ng of Gal-4-driven reporter plasmid encoding the firefly luciferase gene under the control of the Gal4 binding site together with pGal4/HIF-1α plasmid which expresses HIF-1α linked to the DNA binding domain of the yeast Gal4 protein (amino acids 1-147). The transfected human HepG2 hepatoma cells were incubated in both normoxic and hypoxic conditions and then treated with CQ (10, 50 μM) for 16 hours in normoxic condition. 48 hours after the transfection, luciferase activities were analyzed using the reporter gene assay system (Promega, USA) and normalized by β-galactosidase activities.

[13] = tested on: patients with Alzheimer's disease; settings: phase II clinical trial; cited from earlier work
[14] = used as an antibiotic in the mid-1900s, Japan; cited from earlier work
[15] = target: T1, FIH-1; assay: In vitro FIH-1 activity (capture of radio-labeled HIF-1α by GST-CBP); format: biochemical; parameters: histidine tag; made in house; host or cells: E. coli
Experimental: The human FIH-1 gene (AF395830) was cloned into pET28a vector (Novagen, USA) and FIH-1 was overexpressed in E. coli as a histidine-tagged fusion protein and purified by Ni-affinity chromatography. The fusion protein was purified by gel-filtration chromatography (Hi-Load Superdex 200) and concentrated by ultrafiltration (Choi et al., Mol Pharmacol 68:1803-1809, 2005).
The resin-bound GST-CBP N-domain (amino acids 1-450) (Kamei et al., Cell 85:403-414, 1996) was then added to 1 μg of each mixture in 500 μl of binding buffer (200 mM Tris-HCl (pH 8.0), 150 mM NaCl, 20 μM ZnCl2, 0.5 mM DTT) and incubation continued for one hour at 4° C. Glutathione-uniflow resin bound protein was washed four times with 1 ml of 0.1% Nondiet P-40 containing binding buffer, and visualized by SDS-PAGE by eluting using SDS sample buffer (Dann et al., Proc Natl Acad Sci USA 99:15351-15356, 2002). The present inventors substituted the asparagine-803 residue of HIF-1α with alanine to generate HIF-1α mutant [HIF-1α-C(N803A)], followed by investigation on FIH-1 activity by the same manner as described above.
Radio-labeled HIF-1α was reacted with the purified recombinant FIH-1, in the presence or absence of CQ or TPEN. FIH-1 was expected to […] the asparagine-803 residue of HIF-1α and thus inhibit the interaction with CBP binding to HIF-1α transactivation domain (Mahon, P. C. et al., Genes Dev. 15, 2675-2686, 2001; Dannm C. E. R., et al., Proc. Natl. Acad. Sci. USA 99, 15351-15356, 2002; Lando, D., et al., Science 295, 858-861, 2002; Freedman, S. J. et al., Proc. Natl. Acad. Sci. USA 99, 5367-5372, 2002).

[16] = 10 μM solution 10 μl (lower amount, 30.3-39.7 ng)
[17] = 50 μM solution 10 μl (higher amount, 151.5-198.5 ng)

Compound: Oc1c(I)cc(I)c2cccnc12 [B, 5,7-diiodo-8-hydroxyquinoline]
- Angiogenesis/total (No.) [1, 16]: 5/7
- Angiogenesis/total (No.) [1, 17]: 4/6
- angiogenesis [1]: promote angiogenesis

Compound: Oc1c(Br)cc(Br)c2cccnc12 [C, 5,7-dibromo-8-hydroxyquinoline]
- Angiogenesis/total (No.) [1, 16]: 4/6
- Angiogenesis/total (No.) [1, 17]: 3/5
- angiogenesis [1]: promote angiogenesis
- VEGF expression, % to the expression level induced by CQ [2]: 60-70%

Compound: Oc1c(I)cc(Cl)c2cccnc12 [CQ, 5-chloro-7-iodo-8-quinolinol]
- VEGF expression ([3]; HepG2 cells, normoxic, CQ 10, 100 μM): differed in their effects on VEGF expression
- VEGF expression ([3]; SH-SY5Y cells, normoxic condition, CQ 10, 100 μM): increased VEGF expression
- VEGF expression ([3]; hypoxic condition, 16 hours, CQ 100 μM, SH-SY5Y and HepG2 cells): none of the control, TPEN and CQ increased VEGF expression
- amyloid beta plaques and serum levels of amyloid beta [4]: reduced both amyloid beta plaques and serum levels of amyloid beta
- systemic adverse effects [4]: without systemic adverse effects
- pKa value, Ca2+ ([5]; Ca^2+): 8.1
- pKa value, Cu2+ ([5]; Cu^2+): 15.8
- pKa value, Mg2+ ([5]; Mg^2+): 8.6
- pKa value, Zn2+ ([5]; Zn^2+): 12.5
- asparagine-hydroxylating activity of FIH-1 [6]: inhibits the asparagine-hydroxylating activity of FIH-1
- apoptotic cell death [7]: causes apoptotic cell death
- HIF-1α dependent hypoxia-response element (HRE) activity [8]: induced HIF-1α dependent hypoxia-response element (HRE) activity
- crossing of the blood-brain barrier [9]: able to cross the blood-brain barrier
- expression of VEGF [10]: increased expressions of VEGF and EPO
- expression of EPO [11]: increased expressions of VEGF and EPO
- transactivation activity of HIF-1α [12]: increased transactivation activity of HIF-1α
- Angiogenesis/total (No.) [1, 16]: 8/12
- Angiogenesis/total (No.) [1, 17]: 8/12
- angiogenesis [1]: promote angiogenesis
- cognitive decline [13]: slowed cognitive decline
- plasma amyloid beta concentrations [13]: decreased plasma amyloid beta concentrations
- adverse effect in people [14]: caused subacute myelo-optic neuropathy
- FIH-1 activity ([15]; CQ 10 μM and 50 μM, interaction between HIF-1α and CBP as readout): FIH-1 activity was reduced
- interaction between CBP and HIF-1α-C(N803A) mutant ([15]; HIF-1α-C(N803A) mutant, presence or absence of CQ or FIH-1): did not change the interaction between CBP and HIF-1α-C (N803A)
- effect of Cu(II) on the inhibition of FIH-1 activity by CQ ([15]; co-treatment with Cu(II)): failed to reverse the inhibitory effect of CQ
- effect of Zn(II) on the inhibition of FIH-1 activity by CQ ([15]; co-treatment with Zn(II)): failed to reverse the inhibitory effect of CQ

From US8658672B2, “HIF-1α activating agent” (University of Seoul Foundation of Industrial and Academic …, priority 2006, dated 2014)
